Experimental data published in patent US8425918B2, “Use of EDTA and its derivatives for prevention and treatment of bacterial intestinal diseases of pigs and for increasing the effects of antibiotics exerted in such diseases” (Pharmatéka Gyártó´és Kereskedelmi BT, priority 2007, dated 2013).

Columns and labels:
Brachyspira infection [1] = assay: Example 5.1: prevention of bloody diarrhoea, EDTA Na2 salt in the fodder on an infected pig farm; format: in vivo, pigs; settings: 240 ppm EDTA Na2 salt in fodder via premix of Example 1
From the text: (§1) Testing of Compositions Comprising EDTA on Pigs Suffering from Bloody Diarrhoea (Brachyspira Infection)
On a pig farm infected with the pathogen 3 test groups of 20 animals each and one control group of 20 animals were formed from 90 days old piglets. The fodder of the animals belonging to the test groups was complemented throughout the test period (which lasted to slaughtering) with 240 ppm of EDTA Na2 salt utilizing the premix as described in Example 1.

Brachyspira infection [2] = assay: Example 5.3: lincomycin nourishment with or without EDTA Na2 salt, livestock with bloody diarrhoea partly resistant to lincomycin; format: in vivo, pigs
From the text: as §1
At a pig farm infected with the pathogen a nourishment comprising 110 ppm of lincomycin was fed with the livestock suffering from bloody diarrhoea. […] The livestock was separated proportionally, and in the test group 240 ppm of EDTA Na2 salt was admixed to the nourishment, utilizing the premix according to Example 1.

Brachyspira infection [3] = assay: Example 5.2: treatment of pigs suffering from bloody diarrhoea, EDTA Na2 in drinking water; format: in vivo
Procedure: as §1
Pigs suffering from bloody diarrhoea, husbanded on the farm according to Example 5.1, were treated with EDTA Na2 in such a way that 200 ppm of EDTA Na2 were dissolved in the drinking water of the animals. […] In the control group where on the day following the cease of diarrhoea the animals were returned to drinking of pure water bloody diarrhoea reappeared after 4 days.

Brachyspira infection [4] = assay: Example 5.5: prevention in weaned piglets with complemented nourishment; format: in vivo, pigs; settings: test group: nourishment with 240 ppm EDTA Na2, 22 ppm essential oils (1:1 oregano oil and thyme oil) and 100 ppm tannic acid
From the text: Testing of Compositions Comprising EDTA on Pigs Suffering from Bloody Diarrhoea (Brachyspira Infection) At a pig farm with frequently occurring bloody diarrhoea three groups were formed randomly from weaned piglets at switching to solid nourishment. In the first group (test group) the animals were fed continuously with a nourishment comprising 240 ppm of EDTA Na2, 22 ppm of essential oils (1:1 mixture of oregano oil and thyme oil) and 100 ppm of tannic acid. In the second group (control group 1) the animals were fed continuously with a nourishment comprising essential oils and tannic acid in the above amounts but free of EDTA Na2. In the third group (control group 2) no EDTA Na2, essential oils or tannic acid were added to the nourishment of the animals. After a certain period of time soft faeces and then bloody diarrhoea appeared in the animals of control group 2 (fed with a nourishment without completion). Bacteria of Brachospira type were detected in the faeces.

Brachyspira infection [5] = assay: Example 5.4: lincomycin-resistant animals, lincomycin therapy maintained plus EDTA Na2 in drinking water; format: in vivo, pigs
Procedure: as §1
In a part of the lincomycin-resistant animals belonging to the livestock according to Example 5.3, no treatment with another antibiotic was performed, but lincomycin therapy was maintained and simultaneously drinking water comprising 60 ppm of EDTA Na2 was added to the animals.

SMILES	appearance of bloody diarrhoea (Brachyspira infection [1]; 90 days old piglets, until slaughtering)	need for antibiotic treatment (Brachyspira infection [1]; compared with the other animals of the farm)	cessation of bloody diarrhoea (Brachyspira infection [2]; 240 ppm EDTA Na2 salt (premix of Example 1) admixed to nourishment comprising 110 ppm lincomycin)	later occurrence of bloody diarrhoea (Brachyspira infection [2]; continued feeding with fodder comprising EDTA Na2 salt)	cessation of bloody diarrhoea (Brachyspira infection [3]; 200 ppm EDTA Na2 dissolved in drinking water)	time to reappearance of bloody diarrhoea after withdrawal (Brachyspira infection [3]; animals returned to pure water on the day following the cease of diarrhoea) [days]	reoccurrence of bloody diarrhoea (Brachyspira infection [3]; while 200 ppm EDTA Na2 was maintained in the drinking water)	abnormal biological symptoms (soft faeces, bloody diarrhoea) (Brachyspira infection [4])	pathogenic bacteria in the faeces (Brachyspira infection [5]; 60 ppm EDTA Na2 in drinking water with lincomycin)	cessation of diarrhoea (Brachyspira infection [5]; 60 ppm EDTA Na2 in drinking water, lincomycin therapy maintained, lincomycin-resistant animals)	reoccurrence of diarrhoea (Brachyspira infection [5]; after terminating lincomycin, EDTA Na2 in drinking water continued)	persistence of bloody diarrhoea (Brachyspira infection [2]; control group: nourishment comprising 110 ppm lincomycin without EDTA Na2 salt)
O=C([O-])CN(CCN(CC(=O)[O-])CC(=O)O)CC(=O)O.[Na+].[Na+] [EDTA Na2 salt]	No bloody diarrhoea appeared	no antibiotic treatment of the animals of the test groups was required	completely ceased on the third day	no bloody diarrhoea occurred	ceased on the third day	4	did not reoccur	no abnormal biological symptom could be observed	No pathogenic bacteria could be detected	ceased completely within some days	did not reoccur	
CCC[C@@H]1C[C@@H](C(=O)N[C@@H]([C@H]2O[C@H](SC)[C@H](O)[C@@H](O)[C@H]2O)[C@@H](C)O)N(C)C1 [lincomycin, reference compound]												bloody diarrhoea still persisted
